Columns and labels:
[1] = biological target: T1, Estrogen receptor (Ovis aries) (UniProt P49885+Q9TU15)
[2] = biological target: T1, Estrogen receptor (Ovis aries); remark: listed apart in the source
[3] = biological target: T1, Estrogen receptor (Ovis aries); remark: listed apart in the source

Row | SMILES | RAC app [1] | RAC app [2] | RAC app [3]
1 | C[C@]12CC[C@@H]3c4ccc(O)cc4CC[C@H]3[C@@H]1CC[C@@]2(O)CCCOC(=O)CBr | 0.94 | 0.21 | 0.021
2 | C[C@]12CC[C@@H]3c4ccc(O)cc4CC[C@H]3[C@@H]1CC[C@@]2(O)CC1CO1 (stereo in doubt; 6a) | 12 | 1.3 | 0.044
3 | C[C@]12CC[C@@H]3c4ccc(O)cc4CC[C@H]3[C@@H]1CC[C@@]2(O)C#CCCCCCCOC(=O)CBr | 2.4 | 1.5 | 0.24
4 | C[C@]12CC[C@@H]3c4ccc(O)cc4CC[C@H]3[C@@H]1CC[C@@]2(O)C#CCCO | 3.9 | 1 | 0.07
5 | C[C@]12CC[C@@H]3c4ccc(O)cc4CC[C@H]3[C@@H]1CC[C@@]2(O)CCCO | 1.1 | 0.28 | 0.024
6 | C[C@]12CC[C@@H]3c4ccc(O)cc4CC[C@H]3[C@@H]1CC[C@@]2(O)CC1CO1 (stereo in doubt; 6b) | 3.9 | 0.2 | < 0.017
7 | C[C@]12CC[C@@H]3c4ccc(O)cc4CC[C@H]3[C@@H]1CC[C@@]2(O)C#CCCOC(=O)CBr | 2 | 0.79 | 0.066
8 | C[C@]12CC[C@@H]3c4ccc(O)cc4CC[C@H]3[C@@H]1CC[C@@]2(O)C#CCCCCCCO | 6.5 | 3.4 | 0.4
